pIC50: −log10 of the molar value. Read-outs that look alike come from different tables or passages of the source.
Tests used:
human Gal-1 (hGal-1) = human Gal-1 (hGal-1) (Homo sapiens (Human), UniProt P09382); assay: competitive binding assay: biotinylated hGal-1 binding to microplate-adsorbed asialofetuin (ASF); settings: Table 15; read-out: IC50 (Galectin-1 inhibition)
In short: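 Biotinylated human Gal-1 (300-1000 ng/mL) competes with serially diluted compound for binding to ASF-coated plates, 3 h at 4° C. Bound protein detected with streptavidin-peroxidase and ABTS substrate (spectrophotometric). IC50 given as mean of several measurements.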

human Gal-3 (hGal-3) = human Gal-3 (hGal-3) (Homo sapiens (Human), UniProt P17931); assay: competitive binding assay: biotinylated hGal-3 binding to microplate-adsorbed asialofetuin (ASF)
In short: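 Peroxidase activity developed with ABTS measures the biotinylated hGal-3 remaining on the asialofetuin-coated surface after competition with test compounds. Incubation ran 3 h at 4 °C, followed by 1 h with streptavidin-peroxidase at 80 ng/mL.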

[1] = Gal-3 inhibition, binding of biotinylated hGal-3 to ASF, mean values, read-out: IC50
[2] = Table 14, read-out: IC50 (Gal-3 inhibition)

Chain of human Gal-1 (hGal-1) (P09382 whole entry): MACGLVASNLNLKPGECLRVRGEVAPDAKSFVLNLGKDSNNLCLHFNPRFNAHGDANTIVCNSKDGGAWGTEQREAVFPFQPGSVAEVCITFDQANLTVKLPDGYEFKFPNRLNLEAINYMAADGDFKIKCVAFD
Chain of human Gal-3 (hGal-3) (P17931 whole entry): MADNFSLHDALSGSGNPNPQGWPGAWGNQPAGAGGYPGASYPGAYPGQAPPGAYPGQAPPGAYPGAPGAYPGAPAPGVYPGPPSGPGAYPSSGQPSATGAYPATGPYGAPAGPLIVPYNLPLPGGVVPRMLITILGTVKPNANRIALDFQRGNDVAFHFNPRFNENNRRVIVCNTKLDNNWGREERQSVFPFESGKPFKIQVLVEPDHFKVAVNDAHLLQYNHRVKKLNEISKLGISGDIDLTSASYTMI

Row | pIC50 (human Gal-1 (hGal-1)) | pIC50 (human Gal-3 (hGal-3); [1]) | pIC50 (human Gal-3 (hGal-3); Table 10, 2-OMe-Gal inhibitors, read-out: IC50 (Gal-3 inhibition)) | pIC50 (human Gal-3 (hGal-3); Table 9, 2-OMe-Gal inhibitors, read-out: IC50 (Gal-3 inhibition)) | pIC50 (human Gal-3 (hGal-3); [2]) | Structure (SMILES)
1 | 4.21 | 5.49 | – | – | – | OC[C@H]1O[C@@H](SC(c2ccccc2)C2CC2)[C@H](O)[C@@H](n2cc(-c3cc(F)c(F)c(F)c3)nn2)[C@H]1O (stereo partly drawn) [Example 2.54.100., (2S,3R,4S,5R,6R)-2-((Cyclopropyl(phenyl)methyl)thio)-6-(hydroxymethyl)-4-(4-(3,4,5-trifluorophenyl)-1H-1,2,3-triazol-1-yl)tetrahydro-2H-pyran-3,5-diol, reference compound]
2 | 5.46 | 6.64 | – | – | – | CCC(O)C(S[C@@H]1O[C@H](CO)[C@H](O)[C@H](n2cc(-c3cc(F)c(F)c(F)c3)nn2)[C@H]1O)c1ccccc1C(F)(F)F (stereo partly drawn) [Example 2.60.112., (2S,3R,4S,5R,6R)-2-((2-Hydroxy-1-(2-(trifluoromethyl)phenyl)butyl)thio)-6-(hydroxymethyl)-4-(4-(3,4,5-trifluorophenyl)-1H-1,2,3-triazol-1-yl)tetrahydro-2H-pyran-3,5-diol]
3 | 5.10 | 5.96 | – | – | – | OC[C@H]1O[C@@H](SC(c2ccccc2C(F)(F)F)C(O)c2ccccc2)[C@H](O)[C@@H](n2cc(-c3cc(F)c(F)c(F)c3)nn2)[C@H]1O (stereo partly drawn) [Example 2.61.112., (2S,3R,4S,5R,6R)-2-((2-Hydroxy-2-phenyl-1-(2-(trifluoromethyl)phenyl)ethyl)thio)-6-(hydroxymethyl)-4-(4-(3,4,5-trifluorophenyl)-1H-1,2,3-triazol-1-yl)tetrahydro-2H-pyran-3,5-diol]
4 | 4.93 | 5.91 | – | – | – | Cc1ccccc1C(O)C(S[C@@H]1O[C@H](CO)[C@H](O)[C@H](n2cc(-c3cc(F)c(F)c(F)c3)nn2)[C@H]1O)c1ccccc1C(F)(F)F (stereo partly drawn) [Example 2.62.112., (2S,3R,4S,5R,6R)-2-((2-Hydroxy-2-(o-tolyl)-1-(2-(trifluoromethyl)phenyl)ethyl)thio)-6-(hydroxymethyl)-4-(4-(3,4,5-trifluorophenyl)-1H-1,2,3-triazol-1-yl)tetrahydro-2H-pyran-3,5-diol]
5 | 6.48 | 6.85 | – | – | – | Cc1conc1C(S[C@@H]1O[C@H](CO)[C@H](O)[C@H](n2cc(-c3cc(F)c(F)c(F)c3)nn2)[C@H]1O)C1(O)CCS(=O)(=O)CC1 (stereo partly drawn) [Example 2.66.120., 4-((((2S,3R,4S,5R,6R)-3,5-Dihydroxy-6-(hydroxymethyl)-4-(4-(3,4,5-trifluorophenyl)-1H-1,2,3-triazol-1-yl)tetrahydro-2H-pyran-2-yl)thio)(4-methylisoxazol-3-yl)methyl)-4-hydroxytetrahydro-2H-thiopyran 1,1-dioxide]
6 | 7.15 | 7.52 | – | – | – | Cc1conc1[C@@H](S[C@@H]1O[C@H](CO)[C@H](O)[C@H](n2cc(-c3cc(F)c(F)c(F)c3)nn2)[C@H]1O)C1(O)CCS(=O)(=O)CC1 [Example 2.66.120R., 4-((R)-(((2S,3R,4S,5R,6R)-3,5-Dihydroxy-6-(hydroxymethyl)-4-(4-(3,4,5-trifluorophenyl)-1H-1,2,3-triazol-1-yl)tetrahydro-2H-pyran-2-yl)thio)(4-methylisoxazol-3-yl)methyl)-4-hydroxytetrahydro-2H-thiopyran 1,1-dioxide]
7 | 6.24 | – | 7.15 | – | – | CO[C@@H]1[C@@H](n2cc(-c3cc(F)c(F)c(F)c3)nn2)[C@@H](O)[C@@H](CO)O[C@H]1S[C@H](c1nocc1C)C1(O)CCS(=O)(=O)CC1 [Example 2.66.120R.I., 4-Hydroxy-4-((R)-(((2S,3R,4S,5R,6R)-5-hydroxy-6-(hydroxymethyl)-3-methoxy-4-(4-(3,4,5-trifluorophenyl)-1H-1,2,3-triazol-1-yl)tetrahydro-2H-pyran-2-yl)thio)(4-methylisoxazol-3-yl)methyl)tetrahydro-2H-thiopyran 1,1-dioxide]
8 | 4.62 | 5.34 | – | – | – | Cc1conc1[C@H](S[C@@H]1O[C@H](CO)[C@H](O)[C@H](n2cc(-c3cc(F)c(F)c(F)c3)nn2)[C@H]1O)C1(O)CCS(=O)(=O)CC1 [Example 2.66.120S., 4-((S)-(((2S,3R,4S,5R,6R)-3,5-Dihydroxy-6-(hydroxymethyl)-4-(4-(3,4,5-trifluorophenyl)-1H-1,2,3-triazol-1-yl)tetrahydro-2H-pyran-2-yl)thio)(4-methylisoxazol-3-yl)methyl)-4-hydroxytetrahydro-2H-thiopyran 1,1-dioxide]
9 | 6.77 | 7.70 | – | – | – | Cc1cccnc1[C@@H](S[C@@H]1O[C@H](CO)[C@H](O)[C@H](n2cc(-c3cc(F)c(F)c(F)c3)nn2)[C@H]1O)C1(O)CCS(=O)(=O)CC1 [Example 2.66.126R., 4-((R)-(((2S,3R,4S,5R,6R)-3,5-Dihydroxy-6-(hydroxymethyl)-4-(4-(3,4,5-trifluorophenyl)-1H-1,2,3-triazol-1-yl)tetrahydro-2H-pyran-2-yl)thio)(3-methylpyridin-2-yl)methyl)-4-hydroxytetrahydro-2H-thiopyran 1,1-dioxide]
10 | 7.05 | – | – | 7.22 | – | CO[C@@H]1[C@@H](n2cc(-c3cc(F)c(F)c(F)c3)nn2)[C@@H](O)[C@@H](CO)O[C@H]1S[C@H](c1ncccc1C)C1(O)CCS(=O)(=O)CC1 [Example 2.66.126R.I., 4-Hydroxy-4-((R)-(((2S,3R,4S,5R,6R)-5-hydroxy-6-(hydroxymethyl)-3-methoxy-4-(4-(3,4,5-trifluorophenyl)-1H-1,2,3-triazol-1-yl)tetrahydro-2H-pyran-2-yl)thio)(3-methylpyridin-2-yl)methyl)tetrahydro-2H-thiopyran 1,1-dioxide]
11 | 4.78 | 5.70 | – | – | – | Cc1cccnc1[C@H](S[C@@H]1O[C@H](CO)[C@H](O)[C@H](n2cc(-c3cc(F)c(F)c(F)c3)nn2)[C@H]1O)C1(O)CCS(=O)(=O)CC1 [Example 2.66.126S., 4-((S)-(((2S,3R,4S,5R,6R)-3,5-Dihydroxy-6-(hydroxymethyl)-4-(4-(3,4,5-trifluorophenyl)-1H-1,2,3-triazol-1-yl)tetrahydro-2H-pyran-2-yl)thio)(3-methylpyridin-2-yl)methyl)-4-hydroxytetrahydro-2H-thiopyran 1,1-dioxide]
12 | 5.31 | 6.68 | – | – | – | Cc1c(F)cc(-c2cn([C@H]3[C@@H](O)[C@@H](CO)O[C@@H](SC(c4ccccc4C(F)(F)F)C(C)(C)O)[C@@H]3O)nn2)cc1F (stereo partly drawn) [Example 3.31.112., (2S,3R,4S,5R,6R)-4-(4-(3,5-Difluoro-4-methylphenyl)-1H-1,2,3-triazol-1-yl)-2-((2-hydroxy-2-methyl-1-(2-(trifluoromethyl)phenyl)propyl)thio)-6-(hydroxymethyl)tetrahydro-2H-pyran-3,5-diol]
13 | 5.55 | 6.82 | – | – | – | Cc1c(F)cc(-c2cn([C@H]3[C@@H](O)[C@@H](CO)O[C@@H](S[C@H](c4ccccc4C(F)(F)F)C(C)(C)O)[C@@H]3O)nn2)cc1F [Example 3.31.112R., (2S,3R,4S,5R,6R)-4-(4-(3,5-Difluoro-4-methylphenyl)-1H-1,2,3-triazol-1-yl)-2-(((R)-2-hydroxy-2-methyl-1-(2-(trifluoromethyl)phenyl)propyl)thio)-6-(hydroxymethyl)tetrahydro-2H-pyran-3,5-diol]
14 | 4.27 | 5.31 | – | – | – | Cc1c(F)cc(-c2cn([C@H]3[C@@H](O)[C@@H](CO)O[C@@H](S[C@@H](c4ccccc4C(F)(F)F)C(C)(C)O)[C@@H]3O)nn2)cc1F [Example 3.31.112S., (2S,3R,4S,5R,6R)-4-(4-(3,5-Difluoro-4-methylphenyl)-1H-1,2,3-triazol-1-yl)-2-(((S)-2-hydroxy-2-methyl-1-(2-(trifluoromethyl)phenyl)propyl)thio)-6-(hydroxymethyl)tetrahydro-2H-pyran-3,5-diol]
15 | 5.61 | – | – | – | 7.40 | CO[C@@H]1[C@@H](n2cc(-c3cc(F)c(C)c(F)c3)nn2)[C@@H](O)[C@@H](CO)O[C@H]1S[C@H](c1ncccc1C)C1(O)CCC(F)(F)CC1 [Example 3.44.126R.I., (2R,3R,4S,5R,6S)-6-(((R)-(4,4-Difluoro-1-hydroxycyclohexyl)(3-methylpyridin-2-yl)methyl)thio)-4-(4-(3,5-difluoro-4-methylphenyl)-1H-1,2,3-triazol-1-yl)-2-(hydroxymethyl)-5-methoxytetrahydro-2H-pyran-3-ol]
16 | 4.70 | – | – | – | 5.94 | CO[C@@H]1[C@@H](n2cc(-c3cc(F)c(C)c(F)c3)nn2)[C@@H](O)[C@@H](CO)O[C@H]1S[C@@H](c1ncccc1C)C1(O)CCC(F)(F)CC1 [Example 3.44.126S.I., (2R,3R,4S,5R,6S)-6-(((S)-(4,4-Difluoro-1-hydroxycyclohexyl)(3-methylpyridin-2-yl)methyl)thio)-4-(4-(3,5-difluoro-4-methylphenyl)-1H-1,2,3-triazol-1-yl)-2-(hydroxymethyl)-5-methoxytetrahydro-2H-pyran-3-ol]
17 | 5.64 | 5.65 | – | – | – | CC(C)(O)C(S[C@@H]1O[C@H](CO)[C@H](O)[C@H](n2cc(-c3ccc4ccccc4c3)nn2)[C@H]1O)c1ccccc1C(F)(F)F (stereo partly drawn) [Example 4.31.112, (2S,3R,4S,5R,6R)-2-((2-Hydroxy-2-methyl-1-(2-(trifluoromethyl)phenyl)propyl)thio)-6-(hydroxymethyl)-4-(4-(naphthalen-2-yl)-1H-1,2,3-triazol-1-yl)tetrahydro-2H-pyran-3,5-diol]
18 | 5.45 | 5.82 | – | – | – | CC(C)(O)C(S[C@@H]1O[C@H](CO)[C@H](O)[C@H](n2cc(-c3ccc(C#N)c(F)c3)nn2)[C@H]1O)c1ccccc1C(F)(F)F (stereo partly drawn) [Example 5.31.112., 4-(1-((2S,3R,4S,5R,6R)-3,5-Dihydroxy-2-((2-hydroxy-2-methyl-1-(2-(trifluoromethyl)phenyl)propyl)thio)-6-(hydroxymethyl)tetrahydro-2H-pyran-4-yl)-1H-1,2,3-triazol-4-yl)-2-fluorobenzonitrile]

Source: patent publication US12404295B2, “(Hetero)aryl-methyl-thio-beta-D-galactopyranoside derivatives” (Idorsia Pharmaceuticals Ltd, priority 2019, dated 2025)
